Measurements published in PubChem BioAssay AID1963852 (Molecular Pharmacology Branch, DTP, NCI, 2024).

System: 282377-053-R-J1-PDC complex spheroid viability
Assay: Anticancer human tumor 282377-053-R-J1-PDC patient-derived colon adenocarcinoma cell line growth inhibition [POLQ]
Settings: for IC50: curve of first compound; for viability, T/C: stronger effect = lower value; active means viability on the fitted dose curve at most 10% of control; inactive means the rest
Description: Multicellular complex tumor spheroid response to Polymerase (POL) inhibitors (novobiocin, ART-558, RP6685) in combination with a variety of drugs and investigational agents in selected tumor cell lines
The POL inhibitors (novobiocin, ART-558, and RP6685) were evaluated both individually and in combination with standard of care and investigational anticancer small molecules within a complex spheroid model of solid tumors. . Complex spheroids include a stromal component modeled by human endothelial cells (HUVEC) and fibroblasts modeled by human mesenchymal stem cells (MSCs). The concentration ranges selected for each drug and investigational agent were based upon clinically achievable concentrations if the clinical Cmax of the agent was known.
Compounds. The drugs and investigational agents: novobiocin (NSC847541), ART-558 (NSC835418), RP-6685 (NSC848927), peposertib (NSC802822), ceralasertib (NSC780249), elimusertib (NSC800525), camonsertib (NSC841442), AZD-1390 (NSC803789), olaparib (NSC753686), talazoparib (NSC767125), rucaparib (NSC756644), sotorasib (NSC818433), MRTX-1133 (NSC836407), SN-38 (NSC673596), topotecan (NSC609699), epotoside (NSC141540), doxorubicin (NSC123127), gemcitabine (NSC613327), 5-fluorouracil (NSC19893), paclitaxel (NSC125973), vemurafenib (NSC761431), MSA-2 (NSC828583), SN-011 (NSC837082), adavosertib (NSC754352), prexasertib (NSC758257), carboplatin (NSC241240) and oxaliplatin (NSC266046), were obtained from the National Cancer Institute (NCI) Developmental Therapeutics Program Chemical Repository (21). The FDA-approved anticancer drug set is available from the Developmental Therapeutics Program at https://dtp.cancer.gov/organization/dscb/obtaining/. […] The stock solutions were prepared in dimethyl sulfoxide (DMSO, Sigma-Aldrich, St. Louis, MO, cat. D2650), except for the platinum compounds which were prepared in saline (Quality Biological, Gaithersburg, MD, cat. 114-055-101), at 800-fold the tested concentration and stored at -70 degrees C prior to their use. All drugs and investigational agents were tested over a range starting from a high concentration at or near the clinical Cmax and decreasing in half-log increments. If the clinical Cmax for an agent had not been determined, the highest concentration tested was 10 microM, except for SN-38, which was tested at a high concentration of 1 microM.
Cell Culture. All cells were maintained in an incubator at 37 degrees C and 5% CO2 with 95% humidity. The PDC lines were cultured according to standard operating procedures established by the NCI PDMR (https://pdmr.cancer.gov). Table 3 of the manuscript, lists the cell lines along with the number of the three cell types plated to form the mct-spheroids and media for tumor cell growth. After thawing, all PDC lines, except 997537-175-T-J1-PDC and 415267-285-R-J2-PDC, were cultured in Matrigel-coated flasks prepared with a working solution of 1X Ham's F-12 nutrient mix, without supplementation (Thermo Fisher Scientific, cat. 11765054), 100 U/mL penicillin-streptomycin (Thermo Fisher Scientific, cat. 15140122), and 2.5% Matrigel (Corning Inc., Corning, NY, cat. 354248) for the first three passages. The two PDC lines 997537-175-T-J1-PDC and 415267-285-R-J2-PDC were cultured on uncoated flasks. The 857933-349-R-J2-PDC line was cultured in 6C/Colon 1B media containing advanced DMEM/F-12 (Thermo Fisher Scientific, cat. 12634028), 10 mM HEPES (Thermo Fisher Scientific, cat. 15630080), 1X GlutaMAX supplement (Thermo Fisher Scientific, cat. 35050061), 0.1 mg/mL primocin (InvivoGen, San Diego, CA, cat. ant-pm-2), 10% defined fetal bovine serum, heat inactivated (HyClone Laboratories Inc., Logan, UT, cat. SH30070.03HI), 50% L-WRN conditioned media (ATCC, cat. CRL-3276), 1.25 mM N-Acetyl-L-cysteine (Sigma-Aldrich, cat. A9165), 10 mM nicotinamide (Sigma-Aldrich, cat. N0636), 1X B-27 supplement (Thermo Fisher Scientific, cat. 17504044), 1X N-2 supplement (Thermo Fisher Scientific, cat. […]

[1] = second compound 0.0316 µM, first compound 0.0316 µM
[2] = second compound 0.0316 µM, first compound 0.1 µM
[3] = second compound 0.0316 µM, first compound 0.316 µM
[4] = second compound 0.0316 µM, first compound 1 µM
[5] = second compound 0.0316 µM, first compound 3.16 µM
[6] = second compound 0.0316 µM, first compound 10 µM
[7] = second compound 0.1 µM, first compound 0.0316 µM
[8] = second compound 0.1 µM, first compound 0.1 µM
[9] = second compound 0.1 µM, first compound 0.316 µM
[10] = second compound 0.1 µM, first compound 1 µM
[11] = second compound 0.1 µM, first compound 3.16 µM
[12] = second compound 0.1 µM, first compound 10 µM
[13] = second compound 0.316 µM, first compound 0.0316 µM
[14] = second compound 0.316 µM, first compound 0.1 µM
[15] = second compound 0.316 µM, first compound 0.316 µM
[16] = second compound 0.316 µM, first compound 1 µM
[17] = second compound 0.316 µM, first compound 3.16 µM
[18] = second compound 0.316 µM, first compound 10 µM
[19] = second compound 1 µM, first compound 0.0316 µM
[20] = second compound 1 µM, first compound 0.1 µM
[21] = second compound 1 µM, first compound 0.316 µM
[22] = second compound 1 µM, first compound 1 µM
[23] = second compound 1 µM, first compound 3.16 µM
[24] = second compound 1 µM, first compound 10 µM
[25] = second compound 3.16 µM, first compound 0.0316 µM
[26] = second compound 3.16 µM, first compound 0.1 µM
[27] = second compound 3.16 µM, first compound 0.316 µM
[28] = second compound 3.16 µM, first compound 1 µM
[29] = second compound 3.16 µM, first compound 3.16 µM
[30] = second compound 3.16 µM, first compound 10 µM
[31] = second compound 10 µM, first compound 0.0316 µM
[32] = second compound 10 µM, first compound 0.1 µM
[33] = second compound 10 µM, first compound 0.316 µM
[34] = second compound 10 µM, first compound 1 µM
[35] = second compound 10 µM, first compound 3.16 µM
[36] = second compound 10 µM, first compound 10 µM
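Further: spheroids exposed to compounds for seven days.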

COc1cc2cc(C(=O)CCC(=O)O)sc2cc1OC + Nc1ccc(C#CCN(C(=O)Cc2ncc(C(F)(F)F)cc2C(F)(F)F)c2ccc(F)cc2)nn1
inactive: viability, T/C [1] 92.5% | viability, T/C [2] 94.8% | viability, T/C [3] 115% | viability, T/C [4] 102% | viability, T/C [5] 92.2% | viability, T/C [6] 95.2% | viability, T/C [7] 112% | viability, T/C [8] 105% | viability, T/C [9] 81.5% | viability, T/C [10] 102% | viability, T/C [11] 94.5% | viability, T/C [12] 125% | viability, T/C [13] 103% | viability, T/C [14] 95.3% | viability, T/C [15] 89.9% | viability, T/C [16] 87.3% | viability, T/C [17] 102% | viability, T/C [18] 79.9% | viability, T/C [19] 103% | viability, T/C [20] 84.5% | viability, T/C [21] 94% | viability, T/C [22] 104% | viability, T/C [23] 107% | viability, T/C [24] 97.3% | viability, T/C [25] 109% | viability, T/C [26] 112% | viability, T/C [27] 103% | viability, T/C [28] 112% | viability, T/C [29] 100% | viability, T/C [30] 90.1% | viability, T/C [31] 126% | viability, T/C [32] 116% | viability, T/C [33] 123% | viability, T/C [34] 107% | viability, T/C [35] 117% | viability, T/C [36] 104%
> 10 µM: IC50 (second compound 0.0316 µM) | IC50 (second compound 0.1 µM) | IC50 (second compound 0.316 µM) | IC50 (second compound 1 µM) | IC50 (second compound 3.16 µM) | IC50 (second compound 10 µM)

COc1ccc([C@@H](O)c2cc(-c3ncnc4cc(N5CCOCC5)ccc34)c(F)cc2Cl)nn1 + Nc1ccc(C#CCN(C(=O)Cc2ncc(C(F)(F)F)cc2C(F)(F)F)c2ccc(F)cc2)nn1
> 10 µM: IC50 (second compound 0.0316 µM) | IC50 (second compound 0.1 µM) | IC50 (second compound 0.316 µM) | IC50 (second compound 1 µM) | IC50 (second compound 3.16 µM) | IC50 (second compound 10 µM)
inactive: viability, T/C [1] 101% | viability, T/C [2] 98.1% | viability, T/C [3] 102% | viability, T/C [4] 93.8% | viability, T/C [5] 88.3% | viability, T/C [6] 71.8% | viability, T/C [7] 94.4% | viability, T/C [8] 108% | viability, T/C [9] 97.3% | viability, T/C [10] 100% | viability, T/C [11] 85.5% | viability, T/C [12] 83.2% | viability, T/C [13] 102% | viability, T/C [14] 86.2% | viability, T/C [15] 111% | viability, T/C [16] 89% | viability, T/C [17] 106% | viability, T/C [18] 86.9% | viability, T/C [19] 106% | viability, T/C [20] 88.5% | viability, T/C [21] 95.5% | viability, T/C [22] 91.9% | viability, T/C [23] 88.6% | viability, T/C [24] 84.1% | viability, T/C [25] 109% | viability, T/C [26] 105% | viability, T/C [27] 92.5% | viability, T/C [28] 100% | viability, T/C [29] 91% | viability, T/C [30] 85.4% | viability, T/C [31] 122% | viability, T/C [32] 111% | viability, T/C [33] 98.7% | viability, T/C [34] 109% | viability, T/C [35] 100% | viability, T/C [36] 90.1%
